Legend:
[1] = Intravaginal administration of VitAD3E to cows, biochemical changes in blood (Comparative Example 1); conditions: intravaginal VitA 10,000,000 IU + VitD3 5,000,000 IU + VitE 920 IU in 8 mL with 20% ethanol per cow; two Holstein cows
Method: Vitamin A, vitamin D3, and vitamin E were administered to the vaginal cavities of cows to observe biochemical changes in blood after administration in the same manner as in Example 1 except that test drugs, test contents, and biochemical examination items of blood were as described in the following (1) to (3).
• Vitamin A (VitA; bulk for drug production, liquid); • Vitamin D3 (VitD3; bulk for drug production, liquid); and • Vitamin E (VitE; bulk for drug production, liquid). (2) Test Contents • VitAD3E test: intravaginal administration of VitA (10,000,000 IU)+VitD3 (5,000,000 IU)+VitE (920 IU) brought up to 8 mL per cow with 20% ethanol. (3) Biochemical Examination Items of Blood • Control test: VitA, 25-hydroxyvitamin D3 (25-OHD3), VitE, calcium (Ca), inorganic phosphorus (iP), and magnesium (Mg); and • VitAD3E test: VitA, 25-OHD3, and VitE.
The shifts of VitA, 25-OHD3, and VitE concentrations in blood by the intravaginal administration of VitAD3E were observed by the above-described procedure.

[2] = type: in vivo, cow; conditions: intravaginal 1 μg/kg 1α-VD3; two Holstein cows
From the text: Biochemical changes in blood were observed by administering 1α-hydroxyvitamin D3 to the vaginal cavities of cows.
Test animals used were two Holstein dairy cows (Cow A and Cow B) described below. During a test period, the cows were raised by the free grazing of hay (free water drinking) in a field paddock as well as feeding with 2 kg/day of formula feed (64.1% TDN, 13.6% CP, 0.2% Ca, 0.09% Mg, and 1.39% K in DM).
Cow A: 35months old, female, single birth, ovariectomized, 560 kg
Cow B: 34months old, female, single birth, ovariectomized, 580 kg
The following test drug was used: • 1α-hydroxyvitamin D3 (1α-VD3; manufactured by Nisshin Pharma Co., Ltd., powder).
Test contents and schedules were as follows: • 1. Control test: intravaginal administration of 4 mL of 20% ethanol (for 1 week); and • 2. 1α-VD3 test: intravaginal administration of 1 μg/kg (by body weight) of 1α-VD3 dissolved in 4 mL of 20% ethanol (for 2 weeks).
Intravaginal administration was performed by the following procedure:
The above-described reagent was prepared on ice water and then administered, with a 10-mL plastic syringe, to a deep region in the vagina of the test cows previously allowed to urinate and vulva skin was immediately closed with an instant adhesive.
In each test, blood was collected immediately before administration (0 hour) and at 0.5, 1, 2, 3, 6, 12, 24, 48, and 72 hours (hrs) after administration. […]

| Molecule | intravaginal absorption of the drug [1] | effect on Ca metabolism [2] |
| --- | --- | --- |
| C=C1CC[C@H](O)C/C1=C/C=C1\CCC[C@]2(C)[C@@H]([C@H](C)CCCC(C)C)CC[C@@H]12 [vitamin D3, Vitamin D3] | No evidence that administered drugs were absorbed from the vaginal wall was confirmed |  |
| C=C1/C(=C\C=C2/CCC[C@]3(C)[C@@H]([C@H](C)CCCC(C)C)CC[C@@H]23)C[C@@H](O)C[C@@H]1O [1α-VD3, 1α-hydroxyvitamin D3] |  | affecting Ca metabolism |
| Vitamin E | No evidence that administered drugs were absorbed from the vaginal wall was confirmed |  |
